± gives the standard deviation of the averaged measurements.
How the values were obtained:
METHOTREXATE = compound: CN(Cc1cnc2nc(N)nc(N)c2n1)c1ccc(C(=O)N[C@@H](CCC(=O)O)C(=O)O)cc1 [METHOTREXATE]; experiment: surviving fraction relative to DMSO-only wells; higher = less growth inhibition; conditions: exposure time: 5 days
In short: (§1)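 Surviving fraction was calculated by normalising CellTiter-Glo luminescence to the median of DMSO-only wells. Tumour cell lines in log phase were seeded in 384-well plates at 250–500 cells per well, and 24 hours later were exposed continuously for five days to inhibitors at 0.5, 1, 5, 10, 50, 100, 500 and 1000 nM.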

VINORELBINE = compound: CCC1=C[C@@H]2CN(C1)Cc1c([nH]c3ccccc13)[C@@](C(=O)OC)(c1cc3c(cc1OC)N(C)[C@H]1[C@@](O)(C(=O)OC)[C@H](OC(C)=O)[C@]4(CC)C=CCN5CC[C@]31[C@@H]54)C2 [VINORELBINE]; experiment: as above; conditions: exposure time: 5 days
In short: as §1

| Test System | surviving fraction (METHOTREXATE; 0.5 nM) | surviving fraction (METHOTREXATE; 1 nM) | surviving fraction (METHOTREXATE; 5 nM) | surviving fraction (METHOTREXATE; 10 nM) | surviving fraction (METHOTREXATE; 50 nM) | surviving fraction (METHOTREXATE; 100 nM) | surviving fraction (METHOTREXATE; 500 nM) | surviving fraction (METHOTREXATE; 1000 nM) | surviving fraction (VINORELBINE; 0.5 nM) | surviving fraction (VINORELBINE; 1 nM) | surviving fraction (VINORELBINE; 5 nM) | surviving fraction (VINORELBINE; 10 nM) | surviving fraction (VINORELBINE; 50 nM) | surviving fraction (VINORELBINE; 100 nM) | surviving fraction (VINORELBINE; 500 nM) | surviving fraction (VINORELBINE; 1000 nM) |
| --- | --- | --- | --- | --- | --- | --- | --- | --- | --- | --- | --- | --- | --- | --- | --- | --- |
| SG27 HEADNECK | 1.1 ± 0.043 | 1.15 ± 0.15 | 1.09 ± 0.13 | 0.944 ± 0.15 | 1.07 ± 0.034 | 1.25 ± 0.021 | 1.12 ± 0.12 | 1.17 ± 0.07 | 1.17 ± 0.16 | 1.09 ± 0.096 | 1.13 ± 0.12 | 1.08 ± 0.15 | 1.03 ± 0.1 | 1.15 ± 0.018 | 1.26 ± 0.08 | 1.33 ± 0.27 |
| SG28 HEADNECK | 1.06 ± 0.059 | 1.06 ± 0.02 | 1.07 ± 0.09 | 1.14 ± 0.088 | 1.04 ± 0.017 | 1.12 ± 0.087 | 1.123 ± 0.011 | 0.976 ± 0.084 | 1.17 ± 0.22 | 1.04 ± 0.061 | 0.998 ± 0.099 | 0.861 ± 0.13 | 0.589 ± 0.087 | 0.538 ± 0.11 | 0.521 ± 0.016 | 0.542 ± 0.071 |
| SG31 HEADNECK | 1.14 ± 0.19 | 1.21 ± 0.037 | 1.07 ± 0.1 | 1.31 ± 0.22 | 1.16 ± 0.2 | 1.18 ± 0.19 | 1.26 ± 0.2 | 1.21 ± 0.024 | 1.08 ± 0.15 | 1.19 ± 0.14 | 0.848 ± 0.12 | 0.82 ± 0.11 | 0.369 ± 0.04 | 0.315 ± 0.021 | 0.308 ± 0.057 | 0.38 ± 0.072 |
| SG32 HEADNECK | 0.946 ± 0.11 | 1.5 ± 0.84 | 1.19 ± 0.16 | 1.25 ± 0.34 | 0.899 ± 0.039 | 1.02 ± 0.2 | 1.1 ± 0.14 | 0.954 ± 0.078 | 1.32 ± 0.21 | 1.18 ± 0.3 | 0.81 ± 0.042 | 0.621 ± 0.047 | 0.258 ± 0.041 | 0.302 ± 0.053 | 0.409 ± 0.076 | 0.437 ± 0.048 |
| SG43 HEADNECK | 0.924 ± 0.046 | 1.01 ± 0.21 | 0.917 ± 0.18 | 0.915 ± 0.16 | 0.881 ± 0.092 | 0.678 ± 0.091 | 0.909 ± 0.15 | 0.84 ± 0.055 | 1.04 ± 0.14 | 1.13 ± 0.097 | 0.785 ± 0.095 | 0.669 ± 0.075 | 0.47 ± 0.036 | 0.364 ± 0.093 | 0.242 ± 0.066 | 0.138 ± 0.066 |
| SIHA CERVIX | 1.05 ± 0.02 | 1.14 ± 0.048 | 1.07 ± 0.085 | 1.1 ± 0.017 | 0.8 ± 0.014 | 0.835 ± 0.034 | 0.787 ± 0.018 | 0.782 ± 0.014 | 1.09 ± 0.064 | 1.14 ± 0.13 | 1.12 ± 0.027 | 1.03 ± 0.064 | 0.324 ± 0.016 | 0.277 ± 0.085 | 0.341 ± 0.022 | 0.327 ± 0.055 |
| SJSA1 BONE | 1.62 ± 0.029 | 1.63 ± 0.05 | 1.61 ± 0.075 | 1.67 ± 0.14 | 1.7 ± 0.065 | 1.79 ± 0.12 | 1.64 ± 0.1 | 1.88 ± 0.062 | 1.03 ± 0.021 | 1 ± 0.041 | 1.04 ± 0.076 | 0.971 ± 0.033 | 0.499 ± 0.029 | 0.211 ± 0.022 | 0.0877 ± 0.009 | 0.0907 ± 0.0081 |
| SKBR3 BREAST | 1.02 ± 0.024 | 1.11 ± 0.027 | 1.11 ± 0.1 | 1.04 ± 0.12 | 0.784 ± 0.13 | 0.629 ± 0.038 | 0.503 ± 0.1 | 0.512 ± 0.13 | 0.957 ± 0.093 | 1.17 ± 0.035 | 0.532 ± 0.12 | 0.291 ± 0.058 | 0.146 ± 0.013 | 0.156 ± 0.019 | 0.179 ± 0.0087 | 0.182 ± 0.015 |
| SNU475 LIVER | 1.04 ± 0.056 | 1.05 ± 0.05 | 1.05 ± 0.018 | 0.924 ± 0.01 | 0.822 ± 0.13 | 0.854 ± 0.072 | 0.875 ± 0.047 | 0.843 ± 0.11 | 0.982 ± 0.019 | 0.998 ± 0.011 | 1.01 ± 0.029 | 1 ± 0.038 | 0.386 ± 0.041 | 0.197 ± 0.021 | 0.17 ± 0.019 | 0.204 ± 0.032 |
| SUM44 BREAST | 1.31 ± 0.48 | 1.29 ± 0.48 | 1.23 ± 0.36 | 1.23 ± 0.39 | 1.33 ± 0.5 | 1.17 ± 0.38 | 0.819 ± 0.25 | 0.802 ± 0.29 | 1.01 ± 0.068 | 0.972 ± 0.034 | 0.668 ± 0.068 | 0.387 ± 0.024 | 0.258 ± 0.013 | 0.225 ± 0.023 | 0.264 ± 0.014 | 0.256 ± 0.024 |
| SUM149 BREAST | 1.05 ± 0.075 | 1.13 ± 0.12 | 1.1 ± 0.087 | 1.06 ± 0.036 | 0.848 ± 0.074 | 0.751 ± 0.057 | 0.746 ± 0.027 | 0.781 ± 0.058 | 1.07 ± 0.072 | 1.11 ± 0.038 | 1.03 ± 0.059 | 0.768 ± 0.076 | 0.052 ± 0.0027 | 0.0443 ± 0.0076 | 0.0563 ± 0.0047 | 0.061 ± 0.0046 |
| SUM149.B1*.S BREAST | 1.09 ± 0.065 | 1.12 ± 0.042 | 1.06 ± 0.036 | 1.09 ± 0.041 | 0.854 ± 0.035 | 0.767 ± 0.052 | 0.716 ± 0.046 | 0.733 ± 0.0095 | 1.11 ± 0.042 | 1.06 ± 0.05 | 1.09 ± 0.057 | 0.994 ± 0.015 | 0.338 ± 0.038 | 0.154 ± 0.017 | 0.171 ± 0.019 | 0.193 ± 0.0067 |
| SUM159 BREAST | 1.1 ± 0.027 | 1.09 ± 0.036 | 1.1 ± 0.049 | 1.09 ± 0.029 | 1.03 ± 0.038 | 0.951 ± 0.018 | 0.884 ± 0.013 | 0.897 ± 0.02 | 0.966 ± 0.14 | 0.944 ± 0.2 | 0.941 ± 0.2 | 0.908 ± 0.23 | 0.423 ± 0.19 | 0.156 ± 0.052 | 0.129 ± 0.053 | 0.12 ± 0.046 |
| SYO1 SYNOVIAL | 0.991 ± 0.03 | 0.983 ± 0.047 | 0.984 ± 0.041 | 0.991 ± 0.074 | 0.419 ± 0.024 | 0.285 ± 0.0055 | 0.284 ± 0.02 | 0.281 ± 0.011 | 1.03 ± 0.021 | 1 ± 0.027 | 0.818 ± 0.056 | 0.429 ± 0.062 | 0.114 ± 0.011 | 0.0666 ± 0.0041 | 0.052 ± 0.0061 | 0.0546 ± 0.005 |
| T47D BREAST | 1.12 ± 0.013 | 1.12 ± 0.073 | 1.07 ± 0.025 | 0.9393 ± 0.0076 | 0.562 ± 0.033 | 0.406 ± 0.065 | 0.33 ± 0.025 | 0.339 ± 0.024 | 1.03 ± 0.026 | 1.01 ± 0.03 | 0.735 ± 0.026 | 0.609 ± 0.023 | 0.356 ± 0.0061 | 0.341 ± 0.016 | 0.369 ± 0.025 | 0.373 ± 0.013 |
| U2OS BONE | 1 ± 0.045 | 1.02 ± 0.039 | 1.04 ± 0.051 | 0.31 ± 0.0076 | 0.672 ± 0.01 | 0.669 ± 0.014 | 0.636 ± 0.016 | 0.625 ± 0.026 | 1.09 ± 0.022 | 1.03 ± 0.044 | 0.993 ± 0.032 | 0.954 ± 0.04 | 0.569 ± 0.036 | 0.273 ± 0.023 | 0.116 ± 0.0097 | 0.0883 ± 0.012 |
| VCAP PROSTATE | 0.961 ± 0.06 | 0.984 ± 0.036 | 1.02 ± 0.094 | 1.07 ± 0.11 | 1.03 ± 0.079 | 1.07 ± 0.062 | 1.02 ± 0.078 | 1 ± 0.058 | 1.1 ± 0.096 | 1.02 ± 0.035 | 0.64 ± 0.04 | 0.299 ± 0.031 | 0.0883 ± 0.012 | 0.0827 ± 0.021 | 0.122 ± 0.0049 | 0.148 ± 0.022 |
| VP229 BREAST | 1.13 ± 0.076 | 1.12 ± 0.15 | 1.14 ± 0.05 | 1.15 ± 0.13 | 1.25 ± 0.15 | 1.08 ± 0.12 | 1.12 ± 0.12 | 1.14 ± 0.053 | 1.13 ± 0.18 | 0.962 ± 0.062 | 0.958 ± 0.098 | 0.8 ± 0.048 | 0.351 ± 0.043 | 0.297 ± 0.016 | 0.275 ± 0.012 | 0.245 ± 0.014 |
| YAMATO SYNOVIAL | 1.18 ± 0.13 | 1.05 ± 0.089 | 1.25 ± 0.17 | 0.532 ± 0.058 | 0.685 ± 0.065 | 0.587 ± 0.05 | 0.584 ± 0.046 | 0.604 ± 0.048 | 1.04 ± 0.06 | 1.08 ± 0.042 | 1 ± 0.024 | 0.646 ± 0.05 | 0.391 ± 0.036 | 0.36 ± 0.014 | 0.346 ± 0.015 | 0.397 ± 0.0053 |
| ZR751 BREAST | 1 ± 0.11 | 1.1 ± 0.14 | 0.975 ± 0.057 | 1.29 ± 0.21 | 0.715 ± 0.077 | 0.69 ± 0.088 | 0.707 ± 0.044 | 0.741 ± 0.011 | 1.17 ± 0.19 | 1.07 ± 0.1 | 0.7 ± 0.1 | 0.472 ± 0.07 | 0.492 ± 0.054 | 0.431 ± 0.057 | 0.297 ± 0.064 | 0.263 ± 0.041 |
